Laboratory results: patent US20030232851A1, “Viral treatment” (The Procter & Gamble Company, priority 1999, published 2003)
≈ marks a conversion by molar mass, not a printed value. Where “and” joins values, the source holds several entries; their conditions need not be identical. Identical values can stand only once.

Legend:
Type in all cases: cell-based
[1] = test system: TPA-induced BCBL-1 cells; experiment: Kaposi's Sarcoma test: toxicity values; set-up: Toxicity Values, samples 1-3 / Toxicity Values, average: scale not given here
Protocol: (§1) The DNA copy number and the toxicity value were measured and compared with Cidofovir.

[2] = test system: HHV8 cell line, TPA-induced BCBL-1 cells; experiment: Kaposi's Sarcoma (HHV8) in vitro test, DNA copy number
Protocol: as §1

[3] = test system: Cryptococcus neoformans; experiment: Anti-fungal activity (NCCLS M-27A based), Cryptococcus neoformans; details: for MFC / MIC: Cryptococcus neoformans
Protocol: (§2) It was active against cryptococcus neoformans and curvularai lunata. The cidal activity for the C. neoformans is high enough that it is clear […] against this yeast. This test was conducted using a method based upon NCCLS reference method M-27A published in 1997. Solvent, medium and growth controls were set-up with the tests. Once these were read to validate the test performance, the QC fungi were read to insure they had expected results. These steps validated the test system. DMSO was used as a drug-chemical solvent. […] The 90% cut-off is necessary for azoles, which are static and not cidal. The FMC or cidal level was determined by sub-culturing a sample from each tube showing no growth.

[4] = test system: Curvularia lunata; experiment: Anti-fungal activity (NCCLS M-27A based), Curvularia lunata; details: growth inhibited or reduced at least 90%; for MIC: Curvularia lunata
Protocol: as §2

[5] = growth inhibited or reduced at least 90%

## Nc1ccn(C[C@@H](CO)OCP(=O)(O)O)c(=O)n1 [Cidofovir, reference compound]
[1]; 0.08 μM
  Toxicity Values, % cell control: 83.9%
  Toxicity Values, average: 0.814
  Toxicity Values, samples 1-3: 0.864 and 0.797 and 0.780
[1]; 0.25 μM
  Toxicity Values, % cell control: 90.1%
  Toxicity Values, average: 0.874
  Toxicity Values, samples 1-3: 0.867 and 0.819 and 0.934
[1]; 0.8 μM
  Toxicity Values, % cell control: 82.8%
  Toxicity Values, average: 0.803
  Toxicity Values, samples 1-3: 0.824 and 0.770 and 0.814
[1]; 2.5 μM
  Toxicity Values, % cell control: 75.0%
  Toxicity Values, average: 0.728
  Toxicity Values, samples 1-3: 0.794 and 0.684 and 0.704
[1]; 8 μM
  Toxicity Values, % cell control: 69.3%
  Toxicity Values, average: 0.672
  Toxicity Values, samples 1-3: 0.639 and 0.700 and 0.677
[1]; 25 μM
  Toxicity Values, % cell control: 4403%
  Toxicity Values, average: 0.430
  Toxicity Values, samples 1-3: 0.443 and 0.398 and 0.447
[2]; 0.08 μM
  DNA Copy Number, % virus control: 95.3%
  DNA Copy Number, average: 8478.0 per 3 μl
  DNA Copy Number, samples 1-3: 8485.1 per 3 μl and 7948.1 per 3 μl and 9000.8 per 3 μl
[2]; 0.25 μM
  DNA Copy Number, % virus control: 75.0%
  DNA Copy Number, average: 6666.9 per 3 μl
  DNA Copy Number, samples 1-3: 6668.9 per 3 μl and 6336.3 per 3 μl and 6995.5 per 3 μl
[2]; 0.8 μM
  DNA Copy Number, % virus control: 57.5%
  DNA Copy Number, average: 5108.6 per 3 μl
[2]; 2.5 μM
  DNA Copy Number, % virus control: 14.3%
  DNA Copy Number, average: 1276.9 per 3 μl
  DNA Copy Number, samples 1-3: 1329.8 per 3 μl and 1198.3 per 3 μl and 1275.7 per 3 μl
[2]; 8 μM
  DNA Copy Number, % virus control: 0.0%
  DNA Copy Number, average: 3.0 per 3 μl
[2]; 25 μM
  DNA Copy Number, % virus control: 0.0%
  DNA Copy Number, average: 0.0 per 3 μl
  DNA Copy Number, samples 1-3: 0 per 3 μl and 0.0 per 3 μl
[2]; Human gammaherpesvirus 8, BCBL1
  IC50: 1100 nM

## CCC(C)n1ncn(-c2ccc(N3CCN(c4ccc(OCC5COC(Cn6cncn6)(c6ccc(Cl)cc6Cl)O5)cc4)CC3)cc2)c1=O (centres unmarked) [Itra, Itraconazole]
[3]; cidal level
  MFC: > 32 µg/mL
[3]; [5]
  MIC: 0.03 µg/mL (≈ 0.0425 µM)
[4]
  MIC: 0.03 µg/mL (≈ 0.0425 µM)

## c1ccc2[nH]c(-c3cscn3)nc2c1 [Thia, thiabendazole]
[3]; cidal level
  MFC: > 32 µg/mL
[3]; [5]
  MIC: 16 µg/mL (≈ 79.5 µM)
[4]
  MIC: ≥ 32 µg/mL

## methyl 1,2- benzimidazole carbamate or benomyl
[3]; cidal level
  MFC data: >32 µg/mL
[3]; [5]
  MIC data: 8 µg/mL
[4]
  MIC data: 0.06 µg/mL
